Assay results taken from patent publication US20110306597A1, “Nicotinamide Derivatives” (priority 2008, published 2011).

Molecular target: human recombinant H-PGDS (Homo sapiens, UniProt O60760)
Assay: Fluorescence Intensity h-PGDS TBA Enzyme Assay
Assay type: biochemical
Conditions: 1:175,000 human recombinant H-PGDS, highest inhibitor concentration typically 1 μM
Procedure, shortened: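 Recombinant human H-PGDS preincubated 10 min at room temperature with inhibitor in 100 mM Tris pH 8.0, 100 μM MgCl2, 2.5 mM glutathione, 0.5% DMSO; 5.0 μM PGH2 added, stopped after 42 s with FeCl2/citric acid. Remaining PGH2 measured as MDA–TBA fluorescence (ex 530/em 565 nm); IC50 by 4-parameter fit, 11 concentrations.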

Sequence of human recombinant H-PGDS (O60760 whole entry): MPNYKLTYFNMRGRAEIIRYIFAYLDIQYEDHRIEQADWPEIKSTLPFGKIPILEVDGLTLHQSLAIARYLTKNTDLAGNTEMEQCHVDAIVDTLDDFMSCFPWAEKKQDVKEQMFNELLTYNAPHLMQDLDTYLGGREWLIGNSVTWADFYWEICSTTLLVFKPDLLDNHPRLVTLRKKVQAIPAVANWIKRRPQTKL

Row | IC50 [µM] | Compound
1 | 0.138 | CCOC(=O)C(CNC(=O)c1ccc(-c2ccccc2)nc1)c1c(F)cccc1F (centres unmarked) [Example 355, Ethyl 2-(2,6-difluorophenyl)-3-{[(6-phenylpyridin-3-yl)carbonyl]amino}propanoate]
2 | 0.111 | CCC(C)NC(=O)c1ccc(-c2cccc(F)c2)nc1 (centres unmarked) [Example 426, N-sec-Butyl-6-(3-fluorophenyl)nicotinamide]
3 | ≥ 1 | O=C(NCc1ccc(Cl)cc1)c1ccc(-c2ccc(F)cc2)nc1 [Example 462, N-(4-Chlorobenzyl)-6-(4-fluorophenyl)nicotinamide]
4 | 0.105 | Cc1ccc(CNC(=O)c2ccc(-c3cccc(C)c3)nc2)cc1 [Example 251, N-(4-Methylbenzyl)-6-(3-methylphenyl)nicotinamide]
5 | 0.103 | O=C(NCc1ccc(Br)cc1)c1ccc(-c2cccc(F)c2)nc1 [Example 408, N-(4-Bromobenzyl)-6-(3-fluorophenyl)nicotinamide]
6 | 0.00494 | COc1cc(CCNC(=O)c2ccc(-c3cccc(F)c3)nc2)cc(OC)c1O [Example 21, 6-(3-Fluorophenyl)-N-[2-(4-hydroxy-3,5-dimethoxyphenyl)ethyl] nicotinamide]
7 | ≥ 1 | O=C(NCc1ccc(C(F)(F)F)cc1)c1ccc(-c2ccc(F)cc2)nc1 [Example 267, 6-(4-Fluorophenyl)-N-[4-(trifluoromethyl)benzyl] nicotinamide]
8 | 0.0075 | O=C(NC1CCOCC1)c1ccc(-c2ccccc2)nc1 [Example 366, 6-Phenyl-N-(tetrahydro-2H-pyran-4-yl)nicotinamide]
9 | 0.826 | COC(=O)CNC(=O)c1ccc(-c2cccc(OC)c2)nc1 [Example 283, Methyl N-{[6-(3-methoxyphenyl)pyridin-3-yl]carbonyl}glycinate]
10 | 0.0961 | O=C(CNC(=O)c1ccc(-c2cccc(F)c2)nc1)OCc1ccccc1 [Example 418, Benzyl N-{[6-(3-fluorophenyl)pyridin-3-yl]carbonyl}glycinate]
11 | 0.0245 | CCCCNC(=O)c1ccc(-c2cccc(F)c2)nc1 [Example 415, N-Butyl-6-(3-fluorophenyl)nicotinamide]
12 | 0.095 | Cc1cc(O)nc(CNC(=O)c2ccc(-c3cccc(F)c3)nc2)n1 [Example 115, 6-(3-Fluorophenyl)-N-[(4-hydroxy-6-methylpyrimidin-2-yl)methyl]nicotinamide]
13 | 0.896 | O=C(NC1CCN(Cc2ccc(Cl)c(Cl)c2)C1=O)c1ccc(-c2ccc(F)cc2)nc1 (centres unmarked) [Example 479, N-[1-(3,4-Dichlorobenzyl)-2-oxopyrrolidin-3-yl]-6-(4-fluorophenyl)nicotinamide]
14 | 0.0252 | COCCN1CCC2(CC1)CC(NC(=O)c1ccc(-c3cccc(F)c3)nc1)CO2 (centres unmarked) [Example 142, 6-(3-Fluorophenyl)-N-[8-(2-methoxyethyl)-1-oxa-8-azaspiro[4.5]dec-3-yl]nicotinamide]
15 | 0.0734 | CCOCC(O)CNC(=O)c1ccc(-c2cccc(F)c2)nc1 (centres unmarked) [Example 34, N-(3-Ethoxy-2-hydroxypropyl)-6-(3-fluorophenyl)nicotinamide]
16 | 0.101 | CCOC(=O)CC(NC(=O)c1ccc(-c2cccc(F)c2)nc1)c1ccccc1 (centres unmarked) [Example 406, Ethyl 3-({[6-(3-fluorophenyl)pyridin-3-yl]carbonyl}amino)-3-phenylpropanoate]
17 | 1.33 | COc1ccc(C(CNC(=O)c2ccc(-c3cccc(F)c3)nc2)N2CCOCC2)cc1 (centres unmarked) [Example 190, 6-(3-Fluorophenyl)-N-[2-(4-methoxyphenyl)-2-morpholin-4-ylethyl]nicotinamide]
18 | 0.0066 | O=C(CNC(=O)c1ccc(-c2ccccc2)nc1)OCc1ccccc1 [Example 367, Benzyl N-[(6-phenylpyridin-3-yl)carbonyl]glycinate]
19 | 0.0116 | O=C(NCCc1ccncc1)c1ccc(-c2ccccc2)nc1 [Example 356, 6-Phenyl-N-(2-pyridin-4-ylethyl)nicotinamide]
20 | 0.00166 | O=C(Nc1cccnc1)c1ccc(-c2ccccc2)nc1 [Example 354, 6-Phenyl-N-pyridin-3-ylnicotinamide]
21 | 0.0676 | Cc1cccc(-c2ccc(C(=O)NCC3CCCCO3)cn2)c1 (centres unmarked) [Example 239, 6-(3-Methylphenyl)-N-(tetrahydro-2H-pyran-2-ylmethyl)nicotinamide]
22 | 0.0169 | Cc1ccccc1CNC(=O)c1ccc(-c2cc(F)cc(F)c2)nc1 [Example 541, 6-(3,5-Difluorophenyl)-N-(2-methylbenzyl)nicotinamide]
23 | 0.429 | Cc1noc(CCNC(=O)c2ccc(-c3ccc(F)cc3)nc2)n1 [Example 496, 6-(4-Fluorophenyl)-N-[2-(3-methyl-1,2,4-oxadiazol-5-yl)ethyl]nicotinamide]
24 | 0.0236 | COc1ccc(C(N)CC(=O)NC(=O)c2ccc(-c3cccc(C)c3)nc2)cc1OC (centres unmarked) [Example 452, N-[3-Amino-3-(3,4-dimethoxyphenyl)propanoyl]-6-(3-methylphenyl) nicotinamide]

Row | IC50 [µM] | Compound
25 | 0.0771 | COc1cccc(-c2ccc(C(=O)NCc3ccccc3C)cn2)c1 [Example 333, 6-(3-Methoxyphenyl)-N-(2-methylbenzyl)nicotinamide]
26 | 0.316 | CCOC(=O)C(CNC(=O)c1ccc(-c2ccc(F)cc2)nc1)C1CCCC1 (centres unmarked) [Example 260, Ethyl 2-cyclopentyl-3-({[6-(4-fluorophenyl)pyridin-3-yl]carbonyl}amino)propanoate]
27 | 0.00548 | CCc1csc(CNC(=O)c2ccc(-c3cccc(F)c3)nc2)n1 [Example 61, N-[(4-Ethyl-1,3-thiazol-2-yl)methyl]-6-(3-fluorophenyl)nicotinamide]
28 | 0.092 | C[C@H](O)CNC(=O)c1ccc(-c2cccc(F)c2)nc1 [Example 129, 6-(3-Fluorophenyl)-N-[(2S)-2-hydroxypropyl]nicotinamide]
29 | 0.0204 | O=C(NCc1ccc[nH]c1=O)c1ccc(-c2cccc(F)c2)nc1 [Example 13, 6-(3-Fluorophenyl)-N-[(2-oxo-1,2-dihydropyridin-3-yl)methyl]nicotinamide]
30 | 0.697 | O=C(NCCC1CNCCO1)c1ccc(-c2ccc(F)cc2)nc1 (centres unmarked) [Example 458, 6-(4-Fluorophenyl)-N-(2-morpholin-2-ylethyl)nicotinamide]
31 | 0.286 | COC(=O)c1ccc(CNC(=O)c2ccc(-c3ccc(F)cc3)nc2)cc1 [Example 268, Methyl 4-[({[6-(4-fluorophenyl)pyridin-3-yl]carbonyl}amino)methyl benzoate]
32 | 0.687 | CS(=O)(=O)c1ccc(CNC(=O)c2ccc(-c3ccc(F)cc3)nc2)cc1 [Example 504, 6-(4-Fluorophenyl)-N-[4-(methylsulfonyl)benzyl] nicotinamide]
33 | 0.0952 | NC(CC(=O)NC(=O)c1ccc(-c2cccc(F)c2)nc1)C1CC1 (centres unmarked) [Example 444, N-(3-Amino-3-cyclopropylpropanoyl)-6-(3-fluorophenyl) nicotinamide]
34 | 0.0408 | O=C(NC1CCN(Cc2ccc(Cl)c(Cl)c2)C1=O)c1ccc(-c2cccc(F)c2)nc1 (centres unmarked) [Example 160, N-[1-(3,4-Dichlorobenzyl)-2-oxopyrrolidin-3-yl]-6-(3-fluorophenyl)nicotinamide]
35 | 0.0473 | CC(C)(CO)CNC(=O)c1ccc(-c2cccc(F)c2)nc1 [Example 447, 6-(3-Fluorophenyl)-N-(3-hydroxy-2,2-dimethylpropyl) nicotinamide]
36 | 0.215 | COc1cccc(-c2ccc(C(=O)NCc3cccc(S(C)(=O)=O)c3)cn2)c1 [Example 292, 6-(3-Methoxyphenyl)-N-[3-(methylsulfonyl)benzyl] nicotinamide]
37 | 0.578 | COc1cccc(-c2ccc(C(=O)NC(C)c3ccncn3)cn2)c1 (centres unmarked) [Example 299, 6-(3-Methoxyphenyl)-N-(1-pyrimidin-4-ylethyl)nicotinamide]
38 | 0.00762 | COc1cccc(-c2ccc(C(=O)NCC3C(=O)Nc4ccccc43)cn2)c1 (centres unmarked) [Example 313, 6-(3-Methoxyphenyl)-N-[(2-oxo-2,3-dihydro-1H-indol-3-yl)methyl]nicotinamide]
39 | 0.298 | COc1cccc(-c2ccc(C(=O)NCC(C)C)cn2)c1 [Example 338, N-isobutyl-6-(3-methoxyphenyl)nicotinamide]
40 | 0.0471 | CN1CCC(CCNC(=O)c2ccc(-c3cccc(F)c3)nc2)CC1 [Example 175, 6-(3-Fluorophenyl)-N-[2-(1-methylpiperidin-4-yl)ethyl]nicotinamide]
41 | 0.396 | COC(=O)CC(NC(=O)c1ccc(-c2cccc(OC)c2)nc1)c1cccnc1 (centres unmarked) [Example 337, Methyl 3-({[6-(3-methoxyphenyl)pyridin-3-yl]carbonyl}amino)-3-pyridin-3-ylpropanoate]
42 | ≥ 1 | CCOC(=O)CC(NC(=O)c1ccc(-c2ccc(F)cc2)nc1)c1ccc(OC)cc1 (centres unmarked) [Example 506, Ethyl 3-({[6-(4-fluorophenyl)pyridin-3-yl]carbonyl}amino)-3-(4-methoxyphenyl)propanoate]
43 | 0.204 | COc1cccc(-c2ccc(C(=O)NCCNc3ccccc3)cn2)c1 [Example 486, N-(2-Anilinoethyl)-6-(3-methoxyphenyl)nicotinamide]
44 | 0.265 | Cc1cccc(-c2ccc(C(=O)NCCN3CCCCC3)cn2)c1 [Example 225, 6-(3-Methylphenyl)-N-(2-piperidin-1-ylethyl)nicotinamide]
45 | 0.00936 | O=C(NCc1nnc(-c2cccnc2)[nH]1)c1ccc(-c2cccc(F)c2)nc1 [Example 524, 6-(3-Fluorophenyl)-N-[(5-pyridin-3-yl-4H-1,2,4-triazol-3-yl)methyl]nicotinamide]
46 | 0.0448 | COC(=O)c1ccc(CNC(=O)c2ccc(-c3cccc(F)c3)nc2)cc1 [Example 416, Methyl 4-[({[6-(3-fluorophenyl)pyridin-3-yl]carbonyl}amino)methyl] benzoate]
47 | 0.025 | O=C(NCc1ccc(Cl)c(Cl)c1)c1ccc(-c2ccccc2)nc1 [Example 522, N-(3,4-Dichlorobenzyl)-6-phenylnicotinamide]
